{
  "source": "PubChem BioAssay AID328",
  "about": "(DTP/NCI, 2004)",
  "system": "BDF1 mice, P388 leukemia ip, median survival T/C",
  "assay": "NCI In Vivo Anticancer Drug Screen. Data for tumor model P388 Leukemia (intraperitoneal) in B6D2F1 (BDF1) mice",
  "conditions": "endpoint: median survival time, higher = longer survival",
  "procedure,_shortened": "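In tumour-bearing mice, survival after compound treatment is set against the vehicle group and given as a quotient.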",
  "key": {"[1]": {"conditions": "dose: 25.0 mg/kg/injection, schedule: Q01DX009 (ip), vehicle: saline with Tween-80"}, "[2]": {"conditions": "dose: 50.0 mg/kg/injection, schedule: Q01DX009 (ip), vehicle: saline with Tween-80"}, "[3]": {"conditions": "dose: 100.0 mg/kg/injection, schedule: Q01DX009 (ip), vehicle: saline with Tween-80"}, "[4]": {"conditions": "dose: 6.25 mg/kg/injection, schedule: Q01DX009 (ip), vehicle: saline with Tween-80"}, "[5]": {"conditions": "dose: 12.5 mg/kg/injection, schedule: Q01DX009 (ip), vehicle: saline with Tween-80"}},
  "note": "Values joined by “and” are separate entries in the source; they are usually repeats but may differ in a detail not shown here. Equal entries are not always repeated. Toxic doses and inconclusive results are not listed.",
  "data": [
    {"smiles": "COc1cc2c3c(c4ccc(OC)c(OC)c4c2cc1OC)CN1CCC[C@@H]1C3", "values": [
      {"measurement": "T/C", "setting": "dose: 1.25 mg/kg/injection, schedule: Q01DX010 (ip), vehicle: saline", "value": "113 % of control"},
      {"measurement": "T/C", "setting": "dose: 2.5 mg/kg/injection, schedule: Q01DX010 (ip), vehicle: saline", "value": "154 % of control"},
      {"measurement": "T/C", "setting": "dose: 6.0 mg/kg/injection, schedule: Q01DX010 (ip), vehicle: water", "value": "150 % of control"},
      {"measurement": "T/C", "setting": "dose: 8.0 mg/kg/injection, schedule: Q01DX010 (ip), vehicle: water", "value": "170 % of control"},
      {"measurement": "T/C", "setting": "dose: 10.0 mg/kg/injection, schedule: Q01DX010 (ip), vehicle: saline", "value": "150 % of control"},
      {"measurement": "T/C", "setting": "dose: 10.0 mg/kg/injection, schedule: Q01DX010 (ip), vehicle: water", "value": "90 % of control"}
    ]},
    {"smiles": "Br/C(=N\\Nc1nn[nH]n1)c1ccncc1", "values": [
      {"measurement": "T/C", "setting": "dose: 25.0 mg/kg/injection, schedule: Q01DX009 (ip), vehicle: saline", "value": "90 % of control"},
      {"measurement": "T/C", "setting": "dose: 50.0 mg/kg/injection, schedule: Q01DX009 (ip), vehicle: saline", "value": "100 % of control and 104 % of control"},
      {"measurement": "T/C", "setting": "dose: 100.0 mg/kg/injection, schedule: Q01DX009 (ip), vehicle: saline", "value": "90 % of control and 100 % of control"},
      {"measurement": "T/C", "setting": "dose: 200.0 mg/kg/injection, schedule: Q01DX009 (ip), vehicle: saline", "value": "95 % of control and 113 % of control"}
    ]},
    {"smiles": "C(=C\\C1CC2CCCN2O1)/c1ccccc1", "note": "(stereo not given)", "values": [
      {"measurement": "T/C", "setting": "[1]", "value": "100 % of control"},
      {"measurement": "T/C", "setting": "[2]", "value": "102 % of control and 105 % of control"},
      {"measurement": "T/C", "setting": "[3]", "value": "100 % of control"},
      {"measurement": "T/C", "setting": "dose: 200.0 mg/kg/injection, schedule: Q01DX009 (ip), vehicle: saline with Tween-80", "value": "98 % of control and 102 % of control"}
    ]},
    {"smiles": "COc1cccc(OC)c1C(c1c(OC)cccc1OC)c1c(OC)cccc1OC", "values": [
      {"measurement": "T/C", "setting": "[4]", "value": "115 % of control"},
      {"measurement": "T/C", "setting": "[5]", "value": "100 % of control"},
      {"measurement": "T/C", "setting": "[1]", "value": "109 % of control"},
      {"measurement": "T/C", "setting": "dose: 25.0 mg/kg/injection, schedule: Q04DX003 (ip), vehicle: saline with Tween-80", "value": "104 % of control"},
      {"measurement": "T/C", "setting": "[3]", "value": "120 % of control"},
      {"measurement": "T/C", "setting": "dose: 100.0 mg/kg/injection, schedule: Q04DX003 (ip), vehicle: saline with Tween-80", "value": "116 % of control"}
    ]},
    {"smiles": "O=c1[nH]ncc2[nH]cnc12", "values": [
      {"measurement": "T/C", "setting": "[4]", "value": "98 % of control"},
      {"measurement": "T/C", "setting": "[5]", "value": "107 % of control"},
      {"measurement": "T/C", "setting": "[1]", "value": "91 % of control"},
      {"measurement": "T/C", "setting": "[2]", "value": "104 % of control"}
    ]},
    {"smiles": "COc1ccc(/C=C/C(=O)c2ccccc2)cc1OC", "values": [
      {"measurement": "T/C", "setting": "dose: 37.5 mg/kg/injection, schedule: Q01DX009 (ip), vehicle: Klucel (hydroxypropylcellulose) (HPC)", "value": "117 % of control"},
      {"measurement": "T/C", "setting": "dose: 50.0 mg/kg/injection, schedule: Q01DX009 (ip), vehicle: water", "value": "92 % of control"},
      {"measurement": "T/C", "setting": "dose: 75.0 mg/kg/injection, schedule: Q01DX009 (ip), vehicle: Klucel (hydroxypropylcellulose) (HPC)", "value": "111 % of control"},
      {"measurement": "T/C", "setting": "dose: 100.0 mg/kg/injection, schedule: Q01DX006 (ip), vehicle: water", "value": "115 % of control"},
      {"measurement": "T/C", "setting": "dose: 100.0 mg/kg/injection, schedule: Q01DX009 (ip), vehicle: Klucel (hydroxypropylcellulose) (HPC)", "value": "105 % of control"},
      {"measurement": "T/C", "setting": "dose: 100.0 mg/kg/injection, schedule: Q01DX009 (ip), vehicle: water", "value": "115 % of control"},
      {"measurement": "T/C", "setting": "dose: 100.0 mg/kg/injection, schedule: Q04DX003 (ip), vehicle: Klucel (hydroxypropylcellulose) (HPC)", "value": "113 % of control"},
      {"measurement": "T/C", "setting": "dose: 100.0 mg/kg/injection, schedule: Q04DX003 (ip), vehicle: water", "value": "86 % of control"},
      {"measurement": "T/C", "setting": "dose: 150.0 mg/kg/injection, schedule: Q01DX009 (ip), vehicle: Klucel (hydroxypropylcellulose) (HPC)", "value": "105 % of control"},
      {"measurement": "T/C", "setting": "dose: 200.0 mg/kg/injection, schedule: Q01DX006 (ip), vehicle: water", "value": "108 % of control"},
      {"measurement": "T/C", "setting": "dose: 200.0 mg/kg/injection, schedule: Q01DX009 (ip), vehicle: Klucel (hydroxypropylcellulose) (HPC)", "value": "100 % of control"},
      {"measurement": "T/C", "setting": "dose: 200.0 mg/kg/injection, schedule: Q04DX003 (ip), vehicle: Klucel (hydroxypropylcellulose) (HPC)", "value": "90 % of control"},
      {"measurement": "T/C", "setting": "dose: 200.0 mg/kg/injection, schedule: Q04DX003 (ip), vehicle: water", "value": "100 % of control"},
      {"measurement": "T/C", "setting": "dose: 300.0 mg/kg/injection, schedule: Q01DX009 (ip), vehicle: Klucel (hydroxypropylcellulose) (HPC)", "value": "107 % of control and 111 % of control"},
      {"measurement": "T/C", "setting": "dose: 400.0 mg/kg/injection, schedule: Q01DX006 (ip), vehicle: water", "value": "150 % of control"},
      {"measurement": "T/C", "setting": "dose: 400.0 mg/kg/injection, schedule: Q01DX009 (ip), vehicle: Klucel (hydroxypropylcellulose) (HPC)", "value": "109 % of control and 115 % of control"},
      {"measurement": "T/C", "setting": "dose: 400.0 mg/kg/injection, schedule: Q01DX009 (ip), vehicle: water", "value": "124 % of control"},
      {"measurement": "T/C", "setting": "dose: 400.0 mg/kg/injection, schedule: Q04DX003 (ip), vehicle: Klucel (hydroxypropylcellulose) (HPC)", "value": "100 % of control"},
      {"measurement": "T/C", "setting": "dose: 400.0 mg/kg/injection, schedule: Q04DX003 (ip), vehicle: water", "value": "98 % of control"},
      {"measurement": "T/C", "setting": "dose: 500.0 mg/kg/injection, schedule: Q01DX006 (ip), vehicle: water", "value": "161 % of control"},
      {"measurement": "T/C", "setting": "dose: 500.0 mg/kg/injection, schedule: Q01DX009 (ip), vehicle: Klucel (hydroxypropylcellulose) (HPC)", "value": "100 % of control"}
    ]}
  ]
}
